Key:
other cathepsins = conditions: at higher concentrations; cited from earlier work
[1] = test system: U251MG grade IV glioblastoma cell line; conditions: U251MG cells, in the presence of the Cat S inhibitor; cited from earlier work
[2] = test system: HCT116+/+ human colorectal adenocarcinoma xenograft; assay: HCT116+/+ xenograft model, immunohistochemistry of tumour sections; assay type: in vivo, SCID mice; conditions: 15 mg/kg; sections stained with CatS 1E11 mAb; vs untreated
Description: 6-8 week old female SCID mice were implanted with 2×10^6 HCT116+/+ human colorectal adenocarcinoma cells into each flank. […] They were mixed with equal volumes of matrigel to give a final concentration of 5×10^6 cells/ml. Mice were randomly separated into treatment groups on day 5 after implantation and treated with various regimes of CatS Mab or Isotype control Mab (10 mg/kg) with/without 5Fu (15 mg/kg daily or 70 mg/kg twice weekly). All drugs were administered through a bolus injection. Animals were sacrificed at various time points and tumours were removed for analysis.
Paraffin embedding of formalin-fixed xenograft/organ tissue samples, section cutting and H&E (haematoxylin and eosin) staining of tissue sections were performed as previously described. Immunostaining was performed using the avidin-horseradish peroxidase method (Vectorlabs ABC Kit).
Briefly, sections were deparaffinised by passing from xylene to alcohol to running water. Endogenous peroxidase activity was blocked by incubation in 3% H2O2 in methanol for 10 min. Sections were then boiled in citrate buffer, pH6.0, for 22 min. Incubation in 5% normal horse serum blocking solution was carried out for 20 min at room temp. Sections were incubated with primary antibody at 4° C. overnight. Appropriate isotype controls were used at the same dilutions as primary antibodies. […]

HCT116+/+ cells [3] = assay: RT semi quantitative PCR of CatS mRNA with/without CPT11; assay type: cell-based, human; conditions: 7.5 μM CPT11, 48 hour; treated vs untreated
RKO+/+ cells [4] = assay: as above; assay type: cell-based, human; conditions: 7.5 μM CPT11, 48 hour; treated vs untreated
H630 p53 mutant cells = assay: flow cytometry of CatS cell surface expression with/without CPT11; assay type: cell-based, human; conditions: CPT11 48 hour treated; basal 37%
Description: (§1) Cells were collected from tissue culture plates using a scraper and washed ×3 in PBS (0.01% tween) (5 minute centrifugation at 1500 rpm). Approximately 5×10^5 cells were placed in appropriately labelled tubes. Cells were incubated with 50 μl anti-CatS or Isotype control (Sigma, UK) for 1 hour at room temperature. Following incubation each tube was washed ×3 in PBS (0.01% tween) (5 minute centrifugation at 1500 rpm). Samples were then incubated with a 1 in 15 dilution of FITC-conjugated goat anti-mouse secondary antibody (Sigma, UK) (samples kept in dark at room temperature). Following incubation each tube was washed ×3 in PBS (0.01% tween) (5 minute centrifugation at 1500 rpm). Samples were resuspended in 0.5 ml of PBS prior to immediate analysis using the Cyan flow cytometer (Dako, UK). Cell surface expression of CatS was examined using flow Cytometry.

HCT116+/+ cells [5] = assay: as above; assay type: cell-based, human; conditions: CPT11 48 hour treated; basal 39%
Description: as §1

RKO+/+ cells [6] = assay: as above; assay type: cell-based, human; conditions: CPT11 48 hour treated; basal 38%
Description: as §1

HCT116+/+ cells [7] = assay: western blot of CatS in whole cell lysates with/without CPT11; assay type: cell-based, human; conditions: 48 hour CPT11 treatment (7.5 μM), whole cell lysate
Description: (§2) Cells were washed in PBS (5 minute centrifugation at 1500 rpm) prior to lysis with RIPA buffer containing a protease inhibitor cocktail (Calbiochem, UK) as previously described. Whole cell lysates were loaded onto 12% SDS-PAGE gels at equal concentrations. Gels were run overnight at 50V prior to semi-dry transfer onto nitrocellulose membrane at 20V for 45 minutes (BioRad, UK). The nitrocellulose membrane was blocked using PBS (3% Milk powder) for ˜1 hour, and washed ×3 with PBS (0.01% tween) for 5 minutes. The membrane was then probed with a 1 in 1000 dilution of CatS Mab (1E4 Mab or 1E11 Mab) in PBS (3% Milk powder) for 1 hour. The membrane was washed ×3 with PBS (0.01% tween) for 5 minutes prior to the addition of a 1 in 5000 dilution of secondary goat anti mouse-HRP conjugated antibody (BioRad, UK) in PBS (3% Milk powder) for 1 hour. This was then washed three times in PBS (0.01% tween) for 5 minutes each. The membrane was ‘developed’ by ECL (enhanced chemiluminescence) using the Super Signal kit (Pierce). The membrane was incubated in ECL solution for 5 minutes, prior to exposure to photographic film for various time periods. The photographic film was washed in developer solution (Sigma, UK) for 1 minute, rinsed with water, and washed in fixer solution (Sigma, UK) again for 1 minute before being rinsed and dried. […]

RKO+/+ cells [8] = assay: as above; assay type: cell-based, human; conditions: 48 hour CPT11 treatment (7.5 μM), whole cell lysate
Description: as §2

SMILES: CC(C)C[C@H](NC(=O)N1CCOCC1)C(=O)N[C@H](/C=C/S(=O)(=O)c1ccccc1)CCc1ccccc1 [LHVS, 4-Morpholineurea-Leu-HomoPhe-vinylsulphone]
- inhibition of other cathepsins (other cathepsins): inhibit other cathepsins when used at higher concentrations
- reduction in invasion [1]: 61%

SMILES: O=c1[nH]cc(F)c(=O)[nH]1 [5-Fu, Fluorouracil, reference compound]
- CatS expression in tumour sections from treated mice [2]: upregulation in CatS expression

SMILES: CCc1c2c(nc3ccc(OC(=O)N4CCC(N5CCCCC5)CC4)cc13)-c1cc3c(c(=O)n1C2)COC(=O)[C@]3(O)CC [CPT11, Irinotecan]
- CatS mRNA expression in response to chemotherapy (HCT116+/+ cells [3]): increase in expression
- CatS mRNA expression in response to chemotherapy (RKO+/+ cells [4]): increase in expression
- positive CatS cell surface expression following chemotherapy induction (H630 p53 mutant cells): 41%
- positive CatS cell surface expression following chemotherapy induction (HCT116+/+ cells [5]): 59%
- positive CatS cell surface expression following chemotherapy induction (RKO+/+ cells [6]): 49%
- CatS whole protein expression, treated vs untreated (HCT116+/+ cells [7]): no obvious difference in whole protein expression levels
- CatS whole protein expression, treated vs untreated (RKO+/+ cells [8]): no obvious difference in whole protein expression levels

— patent US9321838B2, “Therapy targeting cathepsin S” (Fusion Antibodies Limited, priority 2006, dated 2016)
